The values that follow come from ChEMBL document CHEMBL1153663, “Inhibition of human erythrocyte calpain I by novel quinolinecarboxamides” (Bioorg Med Chem Lett, 1995).

The term IC50 denotes the midpoint of a concentration-inhibition curve. Broadly, the inhibition is the relative decrease from the control value, in per cent. A higher inhibition goes with a response far below the control.

For one assay, the target named is Cathepsin B (Homo sapiens, UniProt P07858). Kind of assay: In vitro inhibitory activity against Cathepsin B.
Regarding `NC(=O)c1cn(-c2ccc(O)cc2Cl)c2cc(-c3ccncc3)ccc2c1=O`, the IC50 came to 25 µM.
Still for that read-out and setting: the figure for `NC(=O)c1cn(-c2ccc(O)cc2)c2cc(-c3ccncc3)ccc2c1=O` is 32 µM.

The target of the next assay is T1, Calpain-1 catalytic subunit (Homo sapiens) (UniProt P07384).
T1 sequence (whole entry): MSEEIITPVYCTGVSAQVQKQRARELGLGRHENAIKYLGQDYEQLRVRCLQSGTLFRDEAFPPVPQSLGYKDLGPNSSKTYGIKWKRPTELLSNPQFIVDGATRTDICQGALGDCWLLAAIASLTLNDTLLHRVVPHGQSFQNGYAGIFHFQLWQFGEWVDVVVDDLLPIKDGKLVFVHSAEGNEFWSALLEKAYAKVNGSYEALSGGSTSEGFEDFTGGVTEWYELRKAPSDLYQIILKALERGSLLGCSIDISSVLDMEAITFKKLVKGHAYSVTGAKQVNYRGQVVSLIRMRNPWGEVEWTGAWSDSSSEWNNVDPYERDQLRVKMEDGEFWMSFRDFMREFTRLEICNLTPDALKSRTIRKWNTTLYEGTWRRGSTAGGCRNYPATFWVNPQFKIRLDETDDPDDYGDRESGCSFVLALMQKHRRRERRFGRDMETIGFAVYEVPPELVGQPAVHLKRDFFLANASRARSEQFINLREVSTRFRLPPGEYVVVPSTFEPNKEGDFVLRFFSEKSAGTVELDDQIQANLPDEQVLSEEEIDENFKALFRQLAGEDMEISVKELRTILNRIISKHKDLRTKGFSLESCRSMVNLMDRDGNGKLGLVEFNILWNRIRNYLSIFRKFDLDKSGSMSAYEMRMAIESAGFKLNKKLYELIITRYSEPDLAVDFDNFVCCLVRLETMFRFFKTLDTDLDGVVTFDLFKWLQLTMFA
Kind of assay: In vitro inhibitory activity against human erythrocyte Calpain 1 at a concentration of 50 uM.
`CNC(=O)c1cn(-c2ccc(O)cc2)c2cc(-c3ccncc3)ccc2c1=O` had an inhibition of under 10%.
On the same count and under the same terms, the figure for `NC(=O)c1cn(-c2ccc(O)cc2)c2ccccc2c1=O` is under 10%.
Take `O=C(NO)c1cn(-c2ccc(O)cc2)c2cc(-c3ccncc3)ccc2c1=O`: the inhibition was under 10%.
The molecule `CN(C)C(=O)c1cn(-c2ccc(O)cc2)c2cc(-c3ccncc3)ccc2c1=O` displayed an inhibition of under 10%.
Same read-out and setting: the figure for `Cc1cc(-n2cc(C(N)=O)c(=O)c3ccc(-c4ccncc4)cc32)cc(C)c1O` is under 10%; for `NC(=O)c1cn(-c2ccc(O)cc2)c2cc(-c3ccccc3)ccc2c1=O` it is under 10%.
`O=C(NCCO)c1cn(-c2ccc(O)cc2)c2cc(-c3ccncc3)ccc2c1=O` returned an inhibition of under 10%.
Same read-out and setting: to `Cc1cncc(C)c1-c1ccc2c(=O)c(C(N)=O)cn(-c3ccc(O)cc3Cl)c2c1` belongs under 10%.

The next assay deals with T2, Calpain-1 catalytic subunit (Homo sapiens, UniProt P07384).
T2 sequence (P07384 whole entry): T1 sequence (whole entry)
Kind of assay: In vitro inhibitory activity against human erythrocyte Calpain 1.
Molecule `NC(=O)c1cn(-c2ccc(O)cc2Cl)c2cc(-n3cccn3)ccc2c1=O` gave an IC50 of 0.6 µM.
For the molecule `CC(=O)N[C@@H](CC(C)C)C(=O)N[C@@H](CC(C)C)C(=O)N[C@H](C=O)CCCNC(=N)N` [LEUPEPTIN], the IC50 turned out to be 0.3 µM.
The same measure, in the same setting: the figure for `Cc1cc(O)ccc1-n1cc(C(N)=O)c(=O)c2ccc(-c3ccncc3)cc21` is 0.5 µM; for `NC(=O)c1cn(-c2ccc(O)cc2Cl)c2cc(-c3cccnn3)ccc2c1=O` it is 2 µM.
Still for that read-out and setting: to `NC(=O)c1cn(-c2ccc(O)cc2Cl)c2cc(-c3ccoc3)ccc2c1=O` belongs 2 µM.
`NC(=O)c1cn(-c2ccc(O)cc2Cl)c2cc(-c3ccncc3)ccc2c1=O` returned an IC50 of 0.5 µM.
Still for that read-out and setting: the figure for `NC(=O)c1cn(-c2ccc(O)cc2C(F)(F)F)c2cc(-c3ccncc3)ccc2c1=O` is 20 µM.
`NC(=O)c1cn(-c2ccc(O)cc2Cl)c2cc(-c3cccnc3)ccc2c1=O` returned an IC50 of 10 µM.
On the same count and under the same terms, the figure for `NC(=O)c1cn(-c2ccc(O)cc2Cl)c2cc(-c3ccncc3Cl)ccc2c1=O` is 2 µM; for `NC(=O)c1cn(-c2ccc(O)cc2Cl)c2cc(-c3ccccn3)ccc2c1=O` it is 30 µM.
Same read-out and setting: to `O=C(O)c1cn(-c2ccc(O)cc2)c2cc(-c3ccncc3)ccc2c1=O` belongs 20 µM.
The same measure, in the same setting: to `NC(=O)c1cn(-c2ccc(O)cc2F)c2cc(-c3ccncc3)ccc2c1=O` belongs 7 µM; to `NC(=O)c1cn(-c2ccc(O)cc2Cl)c2cc(-c3ccnc(F)c3)ccc2c1=O`, 30 µM.

In a further assay the target is Procathepsin L (Homo sapiens, UniProt P07711). Kind of assay: In vitro inhibitory activity against cathepsin L.
Sequence of Procathepsin L (P07711 whole entry): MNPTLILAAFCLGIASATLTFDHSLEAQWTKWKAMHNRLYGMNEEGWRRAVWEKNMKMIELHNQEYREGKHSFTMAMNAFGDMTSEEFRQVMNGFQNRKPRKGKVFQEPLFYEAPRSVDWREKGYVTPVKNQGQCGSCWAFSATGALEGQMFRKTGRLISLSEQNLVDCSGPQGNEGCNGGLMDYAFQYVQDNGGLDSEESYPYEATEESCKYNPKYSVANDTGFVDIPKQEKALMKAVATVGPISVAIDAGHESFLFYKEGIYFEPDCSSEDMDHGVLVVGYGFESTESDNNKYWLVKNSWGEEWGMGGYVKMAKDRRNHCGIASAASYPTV
The molecule `NC(=O)c1cn(-c2ccc(O)cc2Cl)c2cc(-c3ccncc3)ccc2c1=O` showed an IC50 of 22 µM.
Same read-out and setting: the figure for `NC(=O)c1cn(-c2ccc(O)cc2)c2cc(-c3ccncc3)ccc2c1=O` is 37 µM.
